Key:
Experiment in all cases: relative viability (nuclei count vs DMSO), 5 days (fraction); higher = more cells survive
BEN = test system: BEN
Procedure, shortened: (§1)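 Relative viability divides the nuclei count in treated wells by that in vehicle wells. Lung cancer cell lines were seeded in 1536-well plates, dosed by pin tool the next day, and fixed and stained after 5 days in one step with final 0.05% Triton X-100, 1% formaldehyde and 1 ug/ml Hoechst. Dosing was a single drug or a fixed anchor-drug dose plus five library-drug doses (not always all listed) in √10 steps, and values are medians of duplicate plates imaged at 4×.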

CAL-12T = test system: CAL-12T
Procedure, shortened: as §1

H3255 = test system: H3255
Procedure, shortened: as §1

HARA = test system: HARA
Procedure, shortened: as §1

HCC-15 = test system: HCC-15
Procedure, shortened: as §1

HCC-366 = test system: HCC-366
Procedure, shortened: as §1

LC-2-ad = test system: LC-2-ad
Procedure, shortened: as §1

LOU-NH91 = test system: LOU-NH91
Procedure, shortened: as §1

LXF-289 = test system: LXF-289
Procedure, shortened: as §1

NCI-H1395 = test system: NCI-H1395
Procedure, shortened: as §1

NCI-H1651 = test system: NCI-H1651
Procedure, shortened: as §1

NCI-H1793 = test system: NCI-H1793
Procedure, shortened: as §1

NCI-H1915 = test system: NCI-H1915
Procedure, shortened: as §1

NCI-H2085 = test system: NCI-H2085
Procedure, shortened: as §1

NCI-H2170 = test system: NCI-H2170
Procedure, shortened: as §1

NCI-H2347 = test system: NCI-H2347
Procedure, shortened: as §1

NCI-H322M = test system: NCI-H322M
Procedure, shortened: as §1

NCI-H441 = test system: NCI-H441
Procedure, shortened: as §1

NCI-H522 = test system: NCI-H522
Procedure, shortened: as §1

NCI-H647 = test system: NCI-H647
Procedure, shortened: as §1

NCI-H650 = test system: NCI-H650
Procedure, shortened: as §1

NCI-H661 = test system: NCI-H661
Procedure, shortened: as §1

NCI-H838 = test system: NCI-H838
Procedure, shortened: as §1

SK-MES-1 = test system: SK-MES-1
Procedure, shortened: as §1

UMC-11 = test system: UMC-11
Procedure, shortened: as §1

Structure (SMILES): Nc1cccc2c1CN(C1CCC(=O)NC1=O)C2=O (stereo not given) [Lenalidomide] + COc1cccc2cc(-c3nc([C@H]4CC[C@H](C(=O)O)CC4)n4ncnc(N)c34)[nH]c12 [OSI-027] (partner 0.5 µM)
- relative viability (BEN; first compound 0.253 µM): 0.331
- relative viability (BEN; first compound 0.8 µM): 0.295
- relative viability (BEN; first compound 2.53 µM): 0.316
- relative viability (BEN; first compound 8 µM): 0.3
- relative viability (CAL-12T; first compound 0.253 µM): 0.599
- relative viability (CAL-12T; first compound 0.8 µM): 0.555
- relative viability (CAL-12T; first compound 2.53 µM): 1.01
- relative viability (CAL-12T; first compound 8 µM): 0.619
- relative viability (H3255; first compound 0.253 µM): 0.633
- relative viability (H3255; first compound 0.8 µM): 0.65
- relative viability (H3255; first compound 2.53 µM): 0.55
- relative viability (H3255; first compound 8 µM): 0.516
- relative viability (HARA; first compound 0.253 µM): 0.612
- relative viability (HARA; first compound 2.53 µM): 0.564
- relative viability (HARA; first compound 8 µM): 0.534
- relative viability (HCC-15; first compound 0.253 µM): 0.705
- relative viability (HCC-15; first compound 0.8 µM): 0.578
- relative viability (HCC-15; first compound 2.53 µM): 0.826
- relative viability (HCC-15; first compound 8 µM): 0.689
- relative viability (HCC-366; first compound 0.253 µM): 1.02
- relative viability (HCC-366; first compound 0.8 µM): 0.709
- relative viability (HCC-366; first compound 2.53 µM): 1.01
- relative viability (HCC-366; first compound 8 µM): 0.747
- relative viability (LC-2-ad; first compound 0.253 µM): 0.856
- relative viability (LC-2-ad; first compound 2.53 µM): 0.912
- relative viability (LC-2-ad; first compound 8 µM): 0.887
- relative viability (LOU-NH91; first compound 0.253 µM): 0.769
- relative viability (LOU-NH91; first compound 0.8 µM): 0.699
- relative viability (LOU-NH91; first compound 2.53 µM): 0.703
- relative viability (LOU-NH91; first compound 8 µM): 0.664
- relative viability (LXF-289; first compound 0.253 µM): 0.832
- relative viability (LXF-289; first compound 0.8 µM): 0.823
- relative viability (LXF-289; first compound 2.53 µM): 0.871
- relative viability (LXF-289; first compound 8 µM): 0.772
- relative viability (NCI-H1395; first compound 0.253 µM): 0.74
- relative viability (NCI-H1395; first compound 0.8 µM): 0.501
- relative viability (NCI-H1395; first compound 2.53 µM): 0.633
- relative viability (NCI-H1395; first compound 8 µM): 0.601
- relative viability (NCI-H1651; first compound 0.253 µM): 0.772
- relative viability (NCI-H1651; first compound 0.8 µM): 0.728
- relative viability (NCI-H1651; first compound 2.53 µM): 0.994
- relative viability (NCI-H1651; first compound 8 µM): 0.919
- relative viability (NCI-H1793; first compound 0.253 µM): 0.359
- relative viability (NCI-H1793; first compound 2.53 µM): 0.319
- relative viability (NCI-H1793; first compound 8 µM): 0.244
- relative viability (NCI-H1915; first compound 0.253 µM): 0.61
- relative viability (NCI-H1915; first compound 0.8 µM): 0.653
- relative viability (NCI-H1915; first compound 2.53 µM): 0.646
- relative viability (NCI-H1915; first compound 8 µM): 0.615
- relative viability (NCI-H2085; first compound 0.253 µM): 0.818
- relative viability (NCI-H2085; first compound 0.8 µM): 0.518
- relative viability (NCI-H2085; first compound 2.53 µM): 0.879
- relative viability (NCI-H2085; first compound 8 µM): 0.784
- relative viability (NCI-H2170; first compound 0.253 µM): 0.691
- relative viability (NCI-H2170; first compound 0.8 µM): 0.612
- relative viability (NCI-H2170; first compound 2.53 µM): 0.817
- relative viability (NCI-H2170; first compound 8 µM): 0.588
- relative viability (NCI-H2347; first compound 0.253 µM): 0.44
- relative viability (NCI-H2347; first compound 0.8 µM): 0.47
- relative viability (NCI-H2347; first compound 2.53 µM): 0.378
- relative viability (NCI-H2347; first compound 8 µM): 0.454
- relative viability (NCI-H322M; first compound 0.253 µM): 0.53
- relative viability (NCI-H322M; first compound 0.8 µM): 0.527
- relative viability (NCI-H322M; first compound 2.53 µM): 0.609
- relative viability (NCI-H322M; first compound 8 µM): 0.558
- relative viability (NCI-H441; first compound 0.253 µM): 0.485
- relative viability (NCI-H441; first compound 0.8 µM): 0.666
- relative viability (NCI-H441; first compound 2.53 µM): 0.876
- relative viability (NCI-H441; first compound 8 µM): 0.631
- relative viability (NCI-H522; first compound 0.253 µM): 0.754
- relative viability (NCI-H522; first compound 2.53 µM): 0.696
- relative viability (NCI-H522; first compound 8 µM): 0.596
- relative viability (NCI-H647; first compound 0.253 µM): 0.587
- relative viability (NCI-H647; first compound 0.8 µM): 0.551
- relative viability (NCI-H647; first compound 2.53 µM): 1.02
- relative viability (NCI-H647; first compound 8 µM): 0.744
- relative viability (NCI-H650; first compound 0.253 µM): 0.528
- relative viability (NCI-H650; first compound 2.53 µM): 0.577
- relative viability (NCI-H650; first compound 8 µM): 0.472
- relative viability (NCI-H661; first compound 0.253 µM): 0.722
- relative viability (NCI-H661; first compound 0.8 µM): 0.689
- relative viability (NCI-H661; first compound 2.53 µM): 0.849
- relative viability (NCI-H661; first compound 8 µM): 0.729
- relative viability (NCI-H838; first compound 0.253 µM): 0.399
- relative viability (NCI-H838; first compound 0.8 µM): 0.34
- relative viability (NCI-H838; first compound 2.53 µM): 0.459
- relative viability (NCI-H838; first compound 8 µM): 0.383
- relative viability (SK-MES-1; first compound 0.253 µM): 0.573
- relative viability (SK-MES-1; first compound 0.8 µM): 0.703
- relative viability (SK-MES-1; first compound 2.53 µM): 0.63
- relative viability (SK-MES-1; first compound 8 µM): 0.613
- relative viability (UMC-11; first compound 0.253 µM): 0.456
- relative viability (UMC-11; first compound 0.8 µM): 0.576
- relative viability (UMC-11; first compound 2.53 µM): 0.53
- relative viability (UMC-11; first compound 8 µM): 0.464
